Columns and labels:
[1] = intravenous toxicity in anaesthetised rats; type: in vivo; details: two anaesthetised rats, ten times the dose giving approximate 50% inhibition of gastric secretion in the anaesthetised rat
Protocol: (§1) No overt toxicity or side effects were noted during the rat or dog tests. The compound 5-[4-(2-allylguanidino)-1,2,3-triazol-2-yl]valeramide was administered intravenously to groups of two anaesthetised rats and four conscious mice at doses which were respectively ten times and one hundred times the dose, in mg/kg., which produced an approximate 50% inhibition of gastric secretion in the anaesthetised rat.

[2] = intravenous toxicity in conscious mice; type: in vivo; details: four conscious mice, one hundred times the dose giving approximate 50% inhibition of gastric secretion in the anaesthetised rat
Protocol: as §1

With `C=CCN=C(N)Nc1cnn(CCCCC(N)=O)n1.O=C(O)/C=C\C(=O)O` [Example 8, 5-(4-[2-allylguanidino]-1,2,3-triazol-2-yl)valeramide maleate] the toxic symptoms [1] was “No toxic symptoms were noted” and the toxic symptoms [2] was “No toxic symptoms were noted”.

Reference: patent US4696933A, “Guanidine compounds useful as histamine H2-antagonists” (ICI Americas Inc., priority 1981, dated 1987)
